Reference: patent US10112978B2, “Peptide and use thereof” (OSAKA UNIVERSITY, priority 2014, dated 2018)

System: C57BL/6 mice
Assay: Induction of WT1-specific immunity in mice (ELISpot of splenocytes)
Type: in vivo
Conditions: group (3): WT1 peptide 15 μg/mouse + OSK-1 100 μg/mouse, once a week for 4 weeks
Procedure: The OSK-1 peptide and a WT1 peptide were conjugated via ε-Acp as a spacer to form an “OSK-1-WT1 conjugate vaccine”. The OSK-1-WT1 conjugate vaccine was evaluated for the ability to induce WT1-specific immunity in mice. Mice were divided into the following 5 groups (3 animals per group): (1) physiological saline, (2) WT1 peptide (15 μg/mouse)+Incomplete Freund's Adjuvant (IFA, SIGMA; Cat#F5506, 50 μL/mouse), (3) WT1 peptide (15 μg/mouse)+OSK-1 (100 μg/mouse), (4) OSK-1-WT1 conjugate vaccine (50 μg/mouse), and (5) OSK-1-WT1 conjugate vaccine (300 μg/mouse). In each group, the test substance was administered to C57BL/6 mice once a week for 4 weeks. At 2 weeks after the 4th administration, the spleen was excised from each immunized mouse, and the ELISpot assay was performed. The specific procedure is as follows. Splenocytes were prepared from the excised spleen and seeded on a filter plate coated with an anti-IL-4 antibody or an anti-IFNγ antibody. The WT1 peptide or the OSK-1-WT1 peptide was added to the wells, and the splenocytes were cultured for 3 days. After that, each well of the filter plate was stained and the spots of IL-4- or IFNγ-producing cells was counted.

ELKLIFLHRLKRLRKRLKRK (Ac-ELKLIFLHRLKRLRKRLKRK-NH2) [OSK-1]
IFNγ-producing cells in response to stimulation with the WT1 peptide (ELISpot): more cells produced IFNγ in response to the stimulation with the WT1 peptide
